{"source": "paper PMC9510126", "about": "“Hydrophobicity is a key determinant in the activity of arginine-rich cell penetrating peptides” (Scientific Reports, 2022)", "key": {"[1]": {"design": "method as in PMID 24227203", "conditions": "cited from earlier work"}, "live cells": {"system": "live cells", "conditions": "cited from earlier work", "description": "Several strategies have been pursued to improve the delivery properties of CPPs like TAT. They include addition of endosomolytic peptide sequences, addition of hydrophobic residues and cyclization. We and others have shown that reagents which combine multiple copies of the TAT peptide, or TAT-like analogs, are also more efficient at entering cells than their monomeric TAT counterpart. […] In particular, protein payloads co-incubated with dfTAT reach the cytosol of cells by escaping late endosomes specifical ..."}, "[2]": {"experiment": "C18 reverse phase HPLC hydrophobicity of (X)TAT and d(X)TAT peptides", "type": "physicochemical", "conditions": "chromatographic, C18, 0–40% B over 20 min", "description": "In order to assess the hydrophobicity contributed by each X group, the peptides were first analyzed by reverse phase HPLC using a C18 column, using gradients of buffer A (water/TFA 99.9:0.1) and buffer B (acetonitrile/water/TFA 89.9:10:0.1 v:v:v) (gradient of 0–40% B over 20 min). […] All d(X)TAT peptides eluted over a range of 10–35% acetonitrile. […] One caveat of this approach is that the buffer system used for peptide analysis is pH 2 (due to the presence of TFA, required to protonate residue side chains). However, pH 2 is not representative of the pH that CPPs may be exposed to when in contact with cells, either pH 7.2 outside the plasma membrane, or pH between 6.5 and 4.5 while inside acidic endosomes. In order to establish the relative hydrophobicities of d(X)TAT peptides at these pHs, we sought to use other techniques, including thin layer chromatography using C18, aluminum oxide or silica stationary phases. Unfortunately, the arginine-rich peptides could not be separated on these systems. To solve this problem, each individual X group was synthesized, using acetylated and amidated N and C-terminal positions to mimic the peptide backbone found in the d(X)TAT constructs (Fig. 1A, Figure S11). Each Ac-X-NH2 group was analyzed by HPLC and by RP18 TLC, using 40% acetonitrile and 60% PBS as mobile phase. The HPLC elutions of Ac-X-NH2 correlated with the HPLC elutions of their respective d(X)TAT counterparts (Fig. 1C). Similarly, the relative hydrophobicities of Ac-X-NH2 determined by TLC (measured as 1-Rf) at pH 4 or 8 were in good agreement with the results obtained by HPLC (Fig. 1D). […] In the case of DEAC, the protonation state of the fluorophore has, to our knowledge, not been characterized.\nAll rpHPLC retention times were analyzed using an Agilent HP 1200 series instrument on an analytical Phenomenex Luna Omega Polar C18 column (5 μm, 4.6 mm × 250 mm). The flow rate was 2 mL/min, and detection was at 214 nm. A binary solvent system was used comprising 99.9% H2O/0.1% TFA (solvent A) and 90% Acetonitrile/9.9% H2O/0.1% TFA (solvent B). […]"}, "MDA-MB-231 cells": {"system": "MDA-MB-231 cells", "experiment": "Delivery of TMR-k5 probe into live cells (nuclear staining)", "type": "cell-based, human", "conditions": "MDA-MB-231, TMR-k5 20 μM, 1 h, biological triplicates", "source_text": "To test the relative delivery efficiency of the d(X)TAT peptides, the cell lines MDA-MB-231 (epithelial-like, human breast cancer, spindle-shaped) and Neuro-2a (mouse neuroblastoma with neuronal and amoeboid stem cell morphology) were chosen. These cell lines are routinely used in cancer research, neuroscience, and toxicology. In the context of this study, we rationalized that the distinct differences in origin and characteristics between MDA-MB-231 and Neuro-2a properties may be useful to assess the generality of the results obtained. MDA-MB-231 or Neuro-2a cells were incubated with d(X)TAT peptides at various concentrations and TMR-k5 (20 μM) for 1 h. Cells were then washed, incubated with the DNA stain Hoechst and the live/dead marker SYTOX green (or SYTOX blue), and imaged by fluorescence microscopy. The localization of TMR-k5 in individual nuclei was then assessed by measuring the overlap between TMR and Hoechst signals (Fig. 2, Figure S13). […] This is because, in our experience, dfTAT and dfTAT analogs display a threshold behavior where, below a certain endosomal concentration, endosomal leakage is not achieved. In contrast above this threshold most late endosomes are permeabilized. […] Our rationale was therefore to titrate cells with different concentrations of d(X)TAT agents, monitor how many cells display cytosolic/nuclear delivery of TMR-k5, and compare the different d(X)TAT peptides.\nMDA-MB-231 and Neuro2a cells obtained from ATCC (breast cancer-derived epithelial) were cultured in humidified atmosphere at 5% CO2 and 37 °C. Cells were seeded in plastic 48-well plates (Fisher) for quantitative analysis or 8-well Labtek II plates (Fisher) for qualitative imaging at 100× magnification. The cells were grown to 80–90% confluency in a 37 °C humidified atmosphere containing 5% CO2. Cells were washed three times with Leibovitz’s L15 media (L15) (Fisher). Cells were then incubated with peptide and 20 µM of the TMR-k5 pentalysine probe at 37 °C for 1 h. This was followed by washing the cells three times with L15 supplemented with heparin (Sigma-Aldrich) (1 mg/mL) and an extra L15 wash. […] Additionally, the cell permeable dye Hoechst 33342 (Thermo Fisher Scientific o) was used for nuclear staining. Cells were imaged using an EVOS FL Auto 2 inverted microscope (Thermo Fisher Scientific). The microscope is equipped with a heating chamber maintained at 37 °C. Images were acquired using bright field imaging and five fluorescence filter sets: CFP (Ex = 436 ± 10 nm, Em = 480 ± 20 nm), RFP (Ex = 560 ± 20 nm, Em = 630 ± 35 nm), FITC (Ex = 488 ± 10 nm Em = 520 ± 20 nm), DAPI (Ex = 350 ± 50 nm, Em = 460 ± 25 nm), […]. For image viewing and processing individual images, the Celleste 4.0 software (Thermo Fisher Scientific) was used. Nuclear regions in 20× images where identified using Hoechst staining (the quantification process is described in Figure S13). The intensity of these objects in the TMR channel was then determined using the Celleste software. Cells stained by the SYTOX or DRAQ dyes were considered dead and not counted as positive for delivery. Cells displaying a nuclear TMR-k5 fluorescence above the fluorescence threshold determined for TMR-k5 alone were considered positive for delivery (if excluding SYTOX or DRAQ7 stain, and if visually showing stained nucleoli for confirmation of intracellular localization). The percentage of cells positive for TMR-k5 nuclear staining was then calculated, using Hoechst-stained cells to count the total number of cells present. […] Instead, this assay quantifies the number of cells in which the nuclear fluorescence of TMR-k5 is above a detection threshold. This threshold is dependent on the microscope, imaging conditions, and the concentration of TMR-k5 used during incubation (Figure S13). The reproducibility of all the experiments was assessed by performing experiments with independent batches of cell cultures on three different days (i.e., biological triplicates). […]"}}, "note": "Ends that are not written are not given here. * marks the point of attachment. RhodamineB = CCN(CC)c1ccc2c(-c3ccccc3C(=O)*)c3ccc(=[N+](CC)CC)cc-3oc2c1"}
{"molecule": "O=C1OC2(c3ccc(O)cc3Oc3cc(O)ccc32)c2ccccc21", "note": "[fluorescein]", "values": [{"measurement": "pKa (dianionic/monoanionic forms)", "setting": "[1]", "result": 6.4}, {"measurement": "pKa (monoanionic/neutral forms)", "setting": "[1]", "result": 4.3}, {"measurement": "pKa (neutral/cationic forms)", "setting": "[1]", "result": 2.1}]}
{"molecule": "(CK(TMR)RKKRRQRRR)2 (disulfide) [dfTAT, dimer of TAT linked by a cystine disulfide bridge, labeled with two tetramethylrhodamine fluorophores]", "values": [{"measurement": "endosomal escape", "setting": "live cells", "result": "high levels of endosomal escape"}, {"measurement": "time for cell penetration and payload delivery", "setting": "live cells", "result": "less than an hour"}, {"measurement": "protein payload remaining trapped inside endosomes relative to what entered the cytosol", "setting": "live cells; protein payloads co-incubated with dfTAT", "result": "less than 10%"}]}
{"molecule": "(K(RhB))TAT: monomeric peptide CXRKKRRQRRRG with X = K(RhB) (CK(RhodamineB)RKKRRQRRRG-NH2)", "values": [{"measurement": "effect of dimerization on hydrophobicity (dimer vs monomer)", "setting": "[2]; pH 2, (X)TAT vs d(X)TAT", "result": "most impacted by dimerization"}]}
{"molecule": "d(K(RhB))TAT: disulfide dimer of CXRKKRRQRRRG with X = lysine conjugated to rhodamine B (CK(RhodamineB)RKKRRQRRRG-NH2; also: disulfide dimer)", "values": [{"measurement": "relative hydrophobicity of X group by C18 HPLC", "setting": "[2]; 0.1% TFA (pH 2), ranking within the d(X)TAT series", "result": "most hydrophobic"}, {"measurement": "d(X)TAT concentration at which delivery is achieved in a high percentage of cells", "setting": "MDA-MB-231 cells", "result": "< 3", "unit": "µM"}]}
